Assay results as given in US20020111274A1, “1-alkyl-3-[1-(substituted phenyl) benzotriazol-6-yl] uracils” (BASF Aktiengesellschaft, priority 2000, published 2002).

Assays:
Parameters in all cases: scale not given here
[1] = tested on: IPOHE Morningglory, Ivyleaf; experiment: Postemergence herbicidal evaluation, IPOHE; format: in vivo, Ipomoea hederacea, (L.) Jacq.; details: postemergence spray, rated about two-three weeks after treatment
In short: (§1)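 Postemergence spray, 40 psi nozzle, on ~2-week seedlings. Carrier: acetone/water 80/20, 1.0% methylated seed oil; dose ~0.006–0.400 kg/ha. Scored visually at 2–3 weeks.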

[2] = tested on: IPOHE Morningglory, Ivyleaf; experiment: Preemergence herbicidal evaluation, IPOHE; format: in vivo, Ipomoea hederacea, (L.) Jacq.; details: preemergence
In short: (§2)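 Visual ratings were taken four to five weeks after application. Before that, cups sown with seed in potting soil received a spray of compound dissolved in aqueous acetone, equivalent to about 0.013 to 0.800 kg/ha, and stood on greenhouse benches under conventional care.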

[3] = tested on: ABUTH Velvetleaf; experiment: Preemergence herbicidal evaluation, ABUTH; format: in vivo, Abutilon theophrasti, Medic.; details: preemergence
In short: as §2

[4] = tested on: ZEAMX Corn, Field; experiment: Postemergence herbicidal evaluation, ZEAMX; format: in vivo, Zea mays, L. (Sammel-Bezeichnung); details: postemergence spray, rated about two-three weeks after treatment
In short: as §1

[5] = tested on: TRZAWR Wheat, Winter, cv Riband; experiment: Preemergence herbicidal evaluation, TRZAWR; format: in vivo, Triticum aestivum; details: preemergence
In short: as §2

[6] = tested on: SETVI Foxtail, Green; experiment: Preemergence herbicidal evaluation, SETVI; format: in vivo, Setaria viridis, (L.) Beau; details: preemergence
In short: as §2

[7] = tested on: CHEAL Lambsquarters, Common; experiment: Preemergence herbicidal evaluation, CHEAL; format: in vivo, Chenopodium album, L.; details: preemergence
In short: as §2

[8] = tested on: ABUTH Velvetleaf; experiment: Postemergence herbicidal evaluation, ABUTH; format: in vivo, Abutilon theophrasti, Medic.; details: postemergence spray, rated about two-three weeks after treatment
In short: as §1

[9] = tested on: ECHOG Barnyardgrass; experiment: Postemergence herbicidal evaluation, ECHOG; format: in vivo, Echinochloa crus-galli, (L.) Beau; details: postemergence spray, rated about two-three weeks after treatment
In short: as §1

[10] = tested on: ECHOG Barnyardgrass; experiment: Preemergence herbicidal evaluation, ECHOG; format: in vivo, Echinochloa crus-galli, (L.) Beau; details: preemergence
In short: as §2

[11] = tested on: CASOB Sicklepod; experiment: Postemergence herbicidal evaluation, CASOB; format: in vivo, Cassia obtusifolia, L.; details: postemergence spray, rated about two-three weeks after treatment
In short: as §1

[12] = tested on: ZEAMX Corn, Field; experiment: Preemergence herbicidal evaluation, ZEAMX; format: in vivo, Zea mays, L. (Sammel-Bezeichnung); details: preemergence
In short: as §2

CCc1cccc(-n2nnc3cc(F)c(-n4c(=O)cc(C(F)(F)F)n(C)c4=O)cc32)c1 [Example 29, 3-[1-(3-ethylphenyl)-5-fluoro-1H-1,2,3-benzotriazol-6-yl]-1-methyl-6-(trifluoromethyl)-2,4(1H,3H)-pyrimidinedione]
5.0: Postemergence herbicidal rating ZEAMX ([4]; 0.016 kg/ha) | Postemergence herbicidal rating ZEAMX ([4]; 0.032 kg/ha) | Postemergence herbicidal rating ZEAMX ([4]; 0.062 kg/ha)
3.0: IPOHE herbicidal rating ([2]; rate 0.032 kg/ha) | Postemergence herbicidal rating CASOB ([11]; 0.062 kg/ha)
4.0: ECHCG herbicidal rating ([10]; rate 0.032 kg/ha) | ZEAMX herbicidal rating ([12]; rate 0.062 kg/ha)
0.0: IPOHE herbicidal rating ([2]; rate 0.016 kg/ha) | Postemergence herbicidal rating CASOB ([11]; 0.008 kg/ha) | ZEAMX herbicidal rating ([12]; rate 0.016 kg/ha)
1.0: TRZAWR herbicidal rating ([5]; rate 0.016 kg/ha) | TRZAWR herbicidal rating ([5]; rate 0.032 kg/ha) | Postemergence herbicidal rating ECHCG ([9]; 0.008 kg/ha) | Postemergence herbicidal rating ECHCG ([9]; 0.016 kg/ha) | Postemergence herbicidal rating ECHCG ([9]; 0.032 kg/ha) | Postemergence herbicidal rating ECHCG ([9]; 0.062 kg/ha)
6.0: IPOHE herbicidal rating ([2]; rate 0.062 kg/ha) | ABUTH herbicidal rating ([3]; rate 0.016 kg/ha) | SETVI herbicidal rating ([6]; rate 0.016 kg/ha)
2.0: TRZAWR herbicidal rating ([5]; rate 0.062 kg/ha) | TRZAWR herbicidal rating ([5]; rate 0.125 kg/ha) | ECHCG herbicidal rating ([10]; rate 0.016 kg/ha) | Postemergence herbicidal rating CASOB ([11]; 0.016 kg/ha) | Postemergence herbicidal rating CASOB ([11]; 0.032 kg/ha) | ZEAMX herbicidal rating ([12]; rate 0.032 kg/ha)
3.5: Postemergence herbicidal rating ZEAMX ([4]; 0.008 kg/ha)
7.0: IPOHE herbicidal rating ([2]; rate 0.125 kg/ha) | ECHCG herbicidal rating ([10]; rate 0.062 kg/ha) | ECHCG herbicidal rating ([10]; rate 0.125 kg/ha)
9.0: Postemergence herbicidal rating IPOHE ([1]; 0.008 kg/ha) | Postemergence herbicidal rating IPOHE ([1]; 0.016 kg/ha) | Postemergence herbicidal rating IPOHE ([1]; 0.032 kg/ha) | Postemergence herbicidal rating IPOHE ([1]; 0.062 kg/ha) | ABUTH herbicidal rating ([3]; rate 0.032 kg/ha) | ABUTH herbicidal rating ([3]; rate 0.062 kg/ha) | ABUTH herbicidal rating ([3]; rate 0.125 kg/ha) | SETVI herbicidal rating ([6]; rate 0.032 kg/ha) | SETVI herbicidal rating ([6]; rate 0.062 kg/ha) | SETVI herbicidal rating ([6]; rate 0.125 kg/ha) | CHEAL herbicidal rating ([7]; rate 0.016 kg/ha) | CHEAL herbicidal rating ([7]; rate 0.032 kg/ha) | CHEAL herbicidal rating ([7]; rate 0.062 kg/ha) | CHEAL herbicidal rating ([7]; rate 0.125 kg/ha) | Postemergence herbicidal rating ABUTH ([8]; 0.008 kg/ha) | Postemergence herbicidal rating ABUTH ([8]; 0.016 kg/ha) | Postemergence herbicidal rating ABUTH ([8]; 0.032 kg/ha) | Postemergence herbicidal rating ABUTH ([8]; 0.062 kg/ha)
